Assay results as given in patent US20030077317A1, “Methods and compositions for enhancing the bioadhesive properties of polymers using organic excipients” (Brown University Research Foundation, priority 1996, published 2003).

Tests used:
everted intestine = experiment: Distribution of acetaminophen in tissue compartments after incubation of everted intestine in vitro; format: in vitro ADME, rat
Protocol: An in vitro assay for quantifying bioadhesion of microspheres to intestinal tissue was used to test the hot melt microspheres made as described in Example 2 (Jacob et al., Proceed,. Intern. Symp. Control. Rel. Bioact. Mater. 22:312-313 (1995). Everted sac experiments were performed using the microsphere formulations listed above. 6 cm segments of rat jejunum flushed with phosphate buffered saline (PBS), everted and fashioned into sacs filled with PBS. Sacs were incubated with 60 mg of microspheres in 5 ml of PBS at 37° C. with end-over-end agitation. After 30 min, the sacs were removed and the unbound microspheres were collected, washed with distilled water, frozen and lyophilized for 24 hrs. The weight of unbound beads was used to determine the amount of beads bound to the intestine:
The FAPP:SAPP 92:8 18% acetaminophen microspheres were made using the hot melt method described in Example 2, and were used in everted sac experiments and the release of drug was determined to yield information on bioavailability. The release was determined by homogenizing intestinal tissue and mucosal and serosal fluids. The homogenates were centrifuged and the supernatant fluids were assayed for acetaminophen.

rats = experiment: Oral (stomach tube) insulin delivery in rat model, glucose tolerance after subcutaneous glucose load; format: in vivo; settings: fed by stomach tube, by 3 hours
Protocol: The delivery of insulin after adminstration of the nanoparticles, loaded with 10% (w/w) micronized FeO, was studied in a rat model. Five 300 g fasted rats were anaesthetized with Metofane and fed the following formulations by stomach tube: Rats 1 and 2: 0.5 mL saline Rat 3: 24 I.U. insulin/0.5 mL saline (amorphous suspension) Rats 4 and 5: 50 mg FAPP/PLGA nanospheres containing 20 I.U. insulin and 10% (w/w)FeO Blood samples from the tail vein were taken as an initial baseline and rats were subsequently tested for glucose tolerance following injection of a subcutaneous glucose load, consisting of 5 mL of 5% sterile glucose solution. Tutwiler et al., Diabetes, 27:856-867 (1978). At 1, 3, 4 and 5 hours postfeeding, blood samples were again taken and plasma glucose levels were measured spectrophotometrically at 505 nm using the Trinder glucose assay.

Molecule	acetaminophen in gut wall (everted intestine; everted intestine in vitro)	acetaminophen in mucosal fluid (everted intestine; everted intestine in vitro)	acetaminophen in serosal fluid (everted intestine; everted intestine in vitro)	mucosal/serosal ratio (everted intestine; everted intestine in vitro)	acetaminophen distribution, gut wall (everted intestine; everted sac)	acetaminophen distribution, mucosal fluid (everted intestine; everted sac)	acetaminophen distribution, serosal fluid (everted intestine; everted sac)	increase in blood glucose level over fasting baseline (rats)
CC(=O)Nc1ccc(O)cc1 [control, acetaminophen]	19 ± 7 mg/dL	39 ± 1 mg/dL	13 ± 1 mg/dL	3.0	7.9 ± 0.9 % of total dose	86.5 ± 1.5 % of total dose	5.7 ± 0.9 % of total dose	
insulin [oral insulin solution]								62%
